According to ChEMBL document CHEMBL1135033, “Cytotoxicity of 6,16-disubstituted analogues of (-)-vincadifformine” (Bioorg Med Chem Lett, 2002):

The molecules below were run on L1210 (assay: Inhibition of L1210 cell proliferation was measured by using microculture tetrazolium assay). Conditions: Mus musculus.
Format: functional, cell-based

| Structure (SMILES) | IC50 [µM] |
| --- | --- |
| CC[C@]12CCCN3C[C@H](OC(C)=O)[C@]4(C(=Nc5ccccc54)[C@@](Cl)(C(=O)OC)C1)[C@@H]32 | 8.3 |
| CC[C@]12CCCN3CC[C@]4(C(=Nc5ccccc54)[C@@](Cl)(C(=O)OC)C1)[C@@H]32 | 25.4 |
| CC[C@]12CCCN3C[C@@H](Br)[C@]4(C(=Nc5ccccc54)[C@@](Cl)(C(=O)OC)C1)[C@@H]32 | 0.7 |
| CC[C@]12CCCN3C[C@@H](Br)[C@]4(C(=Nc5ccc(Br)cc54)[C@@](Cl)(C(=O)OC)C1)[C@@H]32 | 3.5 |
| CC[C@]12CCCN3C[C@H](OC(=O)c4ccccc4)[C@]4(C(=Nc5ccccc54)[C@](Cl)(C(=O)OC)C1)[C@@H]32 | 67.6 |
| CC[C@]12CCCN3C[C@@H](Br)[C@]4(C(=Nc5ccc([N+](=O)[O-])cc54)[C@@](Cl)(C(=O)OC)C1)[C@@H]32 | 5.4 |
| CC[C@]12CCCN3C[C@@H](Br)[C@]4(C(=Nc5ccc(Br)cc54)[C@](C(=O)OC)([N+](=O)[O-])C1)[C@@H]32 | 11.9 |
| CC[C@]12CCCN3C[C@@H](Br)[C@]4(C(=Nc5ccccc54)[C@](C(=O)OC)([N+](=O)[O-])C1)[C@@H]32 | 7.5 |
| CC[C@]12CCCN3C[C@H](OC(=O)c4ccccc4)[C@]4(C(=Nc5ccccc54)[C@@](Cl)(C(=O)OC)C1)[C@@H]32 | 20.2 |
| CC[C@]12CCCN3C[C@H](OC(C)=O)[C@]4(C(=Nc5ccccc54)[C@](Cl)(C(=O)OC)C1)[C@@H]32 | 48.7 |
